In patent US10350239B2, “Pharmaceutical composition for treating cancer comprising trypsinogen and/or chymotrypsinogen and an active agent selected from a selenium compound, a vanilloid compound and a cytoplasmic glycolysis reduction agent” (Propanc Pty Ltd, priority 2009, dated 2019):
Blank lines part the entries; values can stand above or below the compound they belong to.

Tests used:
[1] = background statement; cited from earlier work
[2] = tested on: bFGF-induced angiogenesis; assay: AngioChamber assay (fibrous capsule wet weight); assay type: in vivo; settings: female FvB mice, once daily Day 0-4, capsule excised Day 5, p<0.05
Text: The AngioChamber™ assay utilises the normal physiological process of wound healing, to promote fibrous capsule formation around an implanted chamber (Wood, J. M., Bold, G., Buchdunger, E., Cozens, R., et al. PTK787/ZK 222584, a Novel and Potent Inhibitor of Vascular Endothelial Growth Factor Tyrosine Kinases, Impairs Vascular Endothelial Growth Factor-Induced Responses and Tumour Growth After Oral Administration. Cancer Research, 60 (8):2178-2189 (2000)). The inclusion of Basic Fibroblast Growth Factor (bFGF) in the chamber supports the fibrouse capsule formation while inducing blood vessel development. […] The fibrous capsule around the chamber was removed and the wet weight recorded. […] The vascularised fibrous capsule that had formed around each chamber was carefully removed and the wet weight recorded immediately. Angiogenesis inhibition by Test Articles (%) was calculated using the following formula: % Inhibition=[(A−B)/(A−C)×100] where A is the mean capsule weight from mice with implanted AngioChambers™ containing growth factor and treated with Vehicle Control (Group 2), B is the mean capsule weight from mice with implanted AngioChambers™ containing growth factor and treated with Test Article (Groups 3-5), and C is the mean capsule weight from mice with implanted AngioChambers™ without growth factor and treated with Vehicle Control (Group 1). […]

[3] = Body weight in the AngioChamber study; assay type: in vivo; settings: female FvB mice; Day 0 to Day 5; 60 mg/kg p.o. daily
Procedure: Body weight measurements were recorded for all animals on the first treatment day (Day 0) and then daily until the termination day of the study (Day 5).
Each animal's body weight was measured immediately prior to dosing. The volume of dosing solution administered to each animal was calculated and adjusted based on individual body weight.
All statistical calculations were performed using SigmaStat 3.0 (SPSS Australasia, North Sydney, NSW, Australia). A paired t-test was used to determine the significance in body weight change within a treatment group between Day 0 and the termination day of the study. […] Significant induction of the fibrous capsule formation by bFGF is considered to be essential to accept the study results. A One-Way Analysis of Variance (ANOVA) was performed on the capsule weight data at the end of the study. Where significant differences were found, All Pairwise Multiple Comparison and Multiple Comparison versus Control Group Procedures (Holm-Sidak Method) were performed. A p value of less than 0.05 was considered significant.

MIAPaCa-2 = assay: CellTiter-Blue cell growth assay, MIAPaCa-2; assay type: cell-based, human; settings: 72 hours, Tables 11-13
Procedure: (§1) All the cell lines used in these studies were of human origin and were sourced from the American Type Culture Collection (ATCC) (Rockville, Md., USA).
(§2) The cells were cultured at 37° C. in a humidified cell culture incubator supplied with 95% air/5% CO2.
(§3) Test Article concentrations were tested in triplicates for each cell line. The CellTiter-Blue® Assay was carried out on all plates 72 hours post addition of Test Articles.
(§4) Following incubation of cells in Test Article-containing media, 10 μL of CellTiter-Blue® was added to each well and incubated with cells for up to 4 hours. Fluorescence was measured using a Spectramax Gemini XPS Fluorometer. All data were recorded and entered into Microsoft® Excel spreadsheets for interpretation.
(§5) Data collected from CellTiter-Blue® assays were plotted as dose response curves for IC50 determination, and as isobolograms to assess the type of interaction between Test Article combinations. For IC50 determinations, growth inhibition was calculated and plotted against compound concentration. In these plots, the X-axis (compound concentration) was represented in a logarithmic scale. IC50 concentration was calculated as the half maximal (50%) inhibitory concentration (IC) for each compound using GraphPad Prism version 5.0 for Mac OSX (GraphPad Software, San Diego Calif., USA).

A549 = assay: CellTiter-Blue cell growth assay, A549; assay type: cell-based, human; settings: A-549; 72 hours; Tables 11-13
Procedure: as §1, §2, §3, §4, §5

HCT-15 = assay: CellTiter-Blue cell growth assay, HCT-15; assay type: cell-based, human; settings: 72 hours, Tables 11-13
Procedure: as §1, §2, §3, §4, §5

A-549 cells = assay: Isobolographic combination assay, A-549 cells; assay type: cell-based, human
Procedure: (§6) The dose-response relations of agents can be used to construct a model giving the expected effect of a combination. The combination of drugs A and B shall be termed (da,db) where da and db are doses of A and B. Effect is treated as a mathematical function, E(da,db). E is sometimes expressed as a fractional effect, then the survival fraction is S: S=1-E. Finally, Da and Db are doses of drugs A and B given separately, which produce an isoeffective response with the combination. Isoboles (iso-effect curves) can be constructed based on the assumption that there is no interaction between the drugs used in combination. The combination (da, db) is represented by a point on a graph that has axes representing doses of the individual drugs. […]
(§7) This ratio is also called g value and it used to determine the type of interaction. In this case the calculated isobole is concave. […]
(§8) The initial concentrations for each compound in each cell line were decided based on the calculated IC50 in a way that the IC50 for each drug fell within the concentration in the dilution series. […]
as §4, with “interpretation. […]” for “interpretation.”

HCT-15 cells = assay: Isobolographic combination assay, HCT-15 cells; assay type: cell-based, human
Procedure: as §6, §7, §8
as §4, with “interpretation. […]” for “interpretation.”

MIAPaCa-2 cells = assay: Isobolographic combination assay, MIAPaCa-2 cells; assay type: cell-based, human
Procedure: as §6, §7, §8
as §4, with “interpretation. […]” for “interpretation.”

[4] = tested on: A-549, HCT-15 and MIAPaCa-2 cells; assay: CellTiter-Blue cell growth assay, three selected cell lines together; assay type: cell-based, human
Procedure: as §1, §2, §3, §4, §5

Compound: C[Se]CC[C@H](N)C(=O)O [selenomethionine]
toxic level (organic forms of selenium) [1]: about 3500 micrograms daily

Compound: CNC(=O)c1cc(Oc2ccc(NC(=O)Nc3ccc(Cl)c(C(F)(F)F)c3)cc2)ccn1 [Sorafenib]
angiogenesis (capsule wet weight) compared to the Induction Control (Vehicle Control with bFGF) ([2]; JBp1 and JBp1-DCM i.p., Sorafenib 60 mg/kg p.o.): significant reduction in angiogenesis
angiogenesis (capsule wet weight) compared with JBp1 monotherapy [2]: significantly reduced angiogenesis
body weight loss at termination of the study [3]: 5.6%

IC50 values (MIAPaCa-2): 280 µg/mL
IC50 values (A549): 230 µg/mL
IC50 values (HCT-15): 410 µg/mL
IC50 values, range over all three cell lines [4]: 230 to 410 µg/mL
Compound: Trypsinogen
Maximum Inhibition (%) (MIAPaCa-2): 82.3%
Maximum Inhibition (%) (A549): 75.7%
Maximum Inhibition (%) (HCT-15): 77.2%
type of interaction in combination with chymotrypsinogen (isobolographic, in words) (A-549 cells): wide-range of synergistic interaction
type of interaction in combination with α-amylase (isobolographic, in words) (A-549 cells): narrow-range type
type of interaction in combination with chymotrypsinogen (isobolographic, in words) (HCT-15 cells): non-antagonistic interaction
type of interaction in combination with α-amylase (isobolographic, in words) (HCT-15 cells): non-synergistic interaction
type of interaction in combination with chymotrypsinogen (isobolographic, in words) (MIAPaCa-2 cells): wide-range of synergistic interaction
type of interaction in combination with α-amylase (isobolographic, in words) (MIAPaCa-2 cells): wide-range type
